Experiments:
Format in all cases: in vivo
Agrostis tenuis = test: Herbicidal early post-emergence action (96-well microtiter plates), AGSTE; conditions: 1900 g/ha, scored 9 to 12 days after treatment, 100% = plants have died, 0% = like untreated control plants
Description: (§1) In the examples and tables below, the following abbreviations are used: • Undesired Plants/Weeds: • ABUTH: Abutilon theophrasti • AGSTE: Agrostis tenuis • AMARE Amaranthus retroflexus • ECHCG: Echinochloa crus-galli • LOLRI: Lolium rigidum • MATIN: Matricaria inodora • POAAN: Poa annua • SETVI: Setaria viridis • STEME: Stellaria media A. Herbicidal Early Post-Emergence Action Seeds of monocotyledonous and dicotyledonous weed plants were placed in 96-well microtiter plates in quartz sand and grown in a climatized chamber under controlled growth conditions. 5 to 7 days after sowing, the test plants were treated at the cotyledon stage. The compounds according to the invention, formulated in the form of emulsion concentrates (EC), were applied with a water application rate of the equivalent of 2200 liters per hectare. After the test plants had been left to stand in the climatized chamber for 9 to 12 days under optimum growth conditions, the effect of the preparations was scored visually in comparison to untreated controls. Here, for example, 100% activity=the plants have died, 0% activity=like untreated control plants. Tables A1 to A2 below show the effects of selected compounds of the general formula (I) according to Table 1 above on various harmful plants and an application rate corresponding to 1900 g/ha, which were obtained by the experimental procedure mentioned above.

Abutilon theophrasti = test: Herbicidal post-emergence action (greenhouse pots), ABUTH; conditions: 1280 g/ha, visual rating about 3 weeks after treatment vs untreated controls
Description: (§2) In the examples and tables below, the following abbreviations are used: • Undesired Plants/Weeds: • ABUTH: Abutilon theophrasti • AGSTE: Agrostis tenuis • AMARE Amaranthus retroflexus • ECHCG: Echinochloa crus-galli • LOLRI: Lolium rigidum • MATIN: Matricaria inodora • POAAN: Poa annua • SETVI: Setaria viridis • STEME: Stellaria media A. Herbicidal Early Post-Emergence Action Seeds of mono- and dicotyledonous weed plants were placed in plastic pots in sandy loam soil (doubly sown with in each case one species of mono- or dicotyledonous weed plants per pot), covered with soil and cultivated in a greenhouse under controlled growth conditions. 2 to 3 weeks after sowing, the test plants were treated at the one-leaf stage. The compounds of the invention, formulated in the form of wettable powders (WP) or as emulsion concentrates (EC), were applied onto the green parts of the plants as aqueous suspension or emulsion with addition of 0.5% additive at a water application rate of 600 liters per hectare (converted). After the test plants had been kept in the greenhouse under optimum growth conditions for about 3 weeks, the activity of the preparations was rated visually in comparison to untreated controls. For example, 100% activity=the plants have died, 0% activity=like untreated control plants. Tables B1-B8 below show the effects of selected compounds of the general formula (I) according to Table 1 above on various harmful plants and an application rate corresponding to 1280 g/ha, which were obtained by the experimental procedure mentioned above.

Setaria viridis = test: Herbicidal pre-emergence action (greenhouse pots), SETVI; conditions: 1280 g/ha, visual scoring after about 3 weeks vs untreated controls
Description: (§3) In the examples and tables below, the following abbreviations are used: • Undesired Plants/Weeds: • ABUTH: Abutilon theophrasti • AGSTE: Agrostis tenuis • AMARE Amaranthus retroflexus • ECHCG: Echinochloa crus-galli • LOLRI: Lolium rigidum • MATIN: Matricaria inodora • POAAN: Poa annua • SETVI: Setaria viridis • STEME: Stellaria media A. Herbicidal Early Post-Emergence Action Seeds of mono- and dicotyledonous weed plants were placed in plastic pots in sandy loam soil (doubly sown with one species each of mono- or dicotyledonous weed plants per pot) and covered with soil. The compounds of the invention, formulated in the form of wettable powders (WP) or as emulsion concentrates (EC), were then applied onto the surface of the covering soil as aqueous suspension or emulsion with addition of 0.5% additive at a water application rate of 600 liters per hectare (converted). After the treatment, the pots were placed in a greenhouse and kept under good growth conditions for the test plants. After about 3 weeks, the effect of the preparations was scored visually in comparison with untreated controls as percentages. For example, 100% activity=the plants have died, 0% activity=like untreated control plants. Tables C1-C8 below show the effects of selected compounds of the general formula (I) according to Table 1 above on various harmful plants and an application rate corresponding to 1280 g/ha, which were obtained by the experimental procedure mentioned above.

Poa annua [1] = test: Herbicidal early post-emergence action (96-well microtiter plates), POAAN; conditions: 1900 g/ha, scored 9 to 12 days after treatment, 100% = plants have died, 0% = like untreated control plants
Description: as §1

Stellaria media [2] = test: Herbicidal post-emergence action (greenhouse pots), STEME; conditions: 1280 g/ha, visual rating about 3 weeks after treatment vs untreated controls
Description: as §2

Amaranthus retroflexus [3] = test: Herbicidal post-emergence action (greenhouse pots), AMARE; conditions: 1280 g/ha, visual rating about 3 weeks after treatment vs untreated controls
Description: as §2

Matricaria inodora = test: Herbicidal pre-emergence action (greenhouse pots), MATIN; conditions: 1280 g/ha, visual scoring after about 3 weeks vs untreated controls
Description: as §3

Amaranthus retroflexus [4] = test: Herbicidal pre-emergence action (greenhouse pots), AMARE; conditions: 1280 g/ha, visual scoring after about 3 weeks vs untreated controls
Description: as §3

Poa annua [5] = test: Herbicidal pre-emergence action (greenhouse pots), POAAN; conditions: 1280 g/ha, visual scoring after about 3 weeks vs untreated controls
Description: as §3

Poa annua [6] = test: Herbicidal post-emergence action (greenhouse pots), POAAN; conditions: 1280 g/ha, visual rating about 3 weeks after treatment vs untreated controls
Description: as §2

Stellaria media [7] = test: Herbicidal pre-emergence action (greenhouse pots), STEME; conditions: 1280 g/ha, visual scoring after about 3 weeks vs untreated controls
Description: as §3

Echinochloa crus-galli [8] = test: Herbicidal pre-emergence action (greenhouse pots), ECHCG; conditions: 1280 g/ha, visual scoring after about 3 weeks vs untreated controls
Description: as §3

Echinochloa crus-galli [9] = test: Herbicidal post-emergence action (greenhouse pots), ECHCG; conditions: 1280 g/ha, rated after about 3 weeks, 100% = plants have died, 0% = like untreated control plants
Description: as §2

Compound	AGSTE (herbicidal activity, scored visually in comparison to untreated controls) (Agrostis tenuis) [%]	herbicidal activity ABUTH (Abutilon theophrasti) [%]	herbicidal activity SETVI (Setaria viridis) [%]	POAAN (herbicidal activity, scored visually in comparison to untreated controls) (Poa annua [1]) [%]	herbicidal activity STEME (Stellaria media [2]) [%]	herbicidal activity AMARE (Amaranthus retroflexus [3]) [%]	herbicidal activity MATIN (Matricaria inodora) [%]	herbicidal activity AMARE (Amaranthus retroflexus [4]) [%]	herbicidal activity POAAN (Poa annua [5]) [%]	herbicidal activity POAAN (Poa annua [6]) [%]	herbicidal activity STEME (Stellaria media [7]) [%]	herbicidal activity ECHCG (Echinochloa crus-galli [8]) [%]	ECHCG (herbicidal activity, rated visually in comparison to untreated controls) (Echinochloa crus-galli [9]) [%]
N#Cc1cccc(Nc2ncc(OC(F)F)cn2)c1Oc1ccc(F)cc1 [Example 1-314]	100	90	100	80	100	100	–	–	–	–	–	–	–
O=[N+]([O-])c1cccc(Nc2ncc(Cl)cn2)c1Oc1ccc(F)cc1 [Example 1-350]	80	–	–	100	–	100	100	100	100	100	–	–	–
N#Cc1cccc(Nc2ccc(F)cn2)c1Oc1ccc(F)c(F)c1 [Example 1-111]	100	90	90	100	90	100	90	100	–	–	100	–	–
Cc1cccc(Nc2ncc(Cl)cn2)c1Oc1ccc(F)cc1 [Example 1-239]	80	–	–	100	100	100	100	–	100	100	–	–	–
Fc1ccc(Oc2c(I)cccc2Nc2ncc(Cl)cn2)cc1 [Example 1-372]	100	–	100	100	90	–	–	100	–	100	–	–	–
N#Cc1cccc(Nc2ncccn2)c1Oc1ccc(C(F)(F)F)cc1 [Example 1-260]	100	–	100	100	90	100	90	100	90	–	100	90	–
N#Cc1cccc(Nc2ncccn2)c1Oc1cccc(F)c1 [Example 1-247]	80	–	100	–	–	100	–	100	100	–	100	90	–
Fc1ccc(Oc2ccccc2Nc2ncc(Cl)cn2)cc1 [Example 1-337]	100	90	–	100	–	90	–	90	100	–	–	–	90
Clc1cnc(Nc2cccc(Cl)c2Oc2ccccc2)nc1 [Example 1-340]	80	90	100	100	100	100	–	100	100	–	90	–	–
COc1cnc(Nc2cccc(C#N)c2Oc2ccc(F)cc2)nc1 [Example 1-312]	100	100	90	100	100	100	100	100	100	–	100	–	–
N#Cc1cccc(Nc2ncc(Cl)cn2)c1Oc1cccc(F)c1 [Example 1-285]	–	–	100	–	–	100	–	100	100	–	100	90	–
CC(=O)N(C)c1cccc(Nc2ncc(Cl)cn2)c1Oc1ccc(F)cc1 [Example 1-369]	80	–	100	80	–	100	–	100	–	100	100	–	–
N#Cc1cccc(Nc2ncc(Cl)cn2)c1Oc1ccc(F)cc1Cl [Example 1-293]	80	90	100	80	–	100	–	100	–	–	90	–	–

Reference: patent US12415786B2, “Substituted 2-heteroarylaminobenzenes and the salts thereof and their use as herbicidal agents” (Bayer Aktiengesellschaft, priority 2019, dated 2025)
